Molecules are shown by their SMILES.

Data set [1] relates to androgen-independent metastatic prostate cancer. The note with it: TAX 327 phase III study, patients; cited from earlier work.
For data set [2], the system named is LNCaP (androgen-sensitive) human prostate cancer tumors SRCX. Description: Growth of LNCaP prostate cancer tumors SRCX in mice. The conditions noted are these: 3 weeks. In kind it is in vivo. Here is the method:
LNCaP prostate cancer was treated for 3 weeks according to the following regimen.

For data set [3] the following is noted: cited from earlier work.
The subject of data set [4] is human prostate cancer cells in mouse xenografts. The note with it: cited from earlier work.
The test system of data set [5] is human prostate cancer cells in culture. The conditions noted are these: cited from earlier work.
Data set [6] concerns PSA. The conditions noted are these: cited from earlier work.

On to `CC(=O)O[C@@]12CO[C@@H]1C[C@H](O)[C@@]1(C)C(=O)[C@H](O)C3=C(C)[C@@H](OC(=O)[C@H](O)[C@@H](NC(=O)OC(C)(C)C)c4ccccc4)C[C@@](O)([C@@H](OC(=O)c4ccccc4)[C@H]21)C3(C)C` [Taxotere®, docetaxel], for which the overall response rate in data set [1] is reported as 12%. The “inhibition of growth of LNCaP tumors” value in data set [2] (Aneustat 1652 mg/kg oral gavage QD x 21, Taxotere 10 mg/kg IP d=1, 8, 15, P<0.01) is reported as “significantly inhibited growth”. Moreover, the “efficacy in tumor size reduction (FIG. 1)” value in data set [2] (Aneustat 1652 mg/kg oral, Taxotere 10 mg/kg IP) is “somewhat more effective”. For the same compound, in data set [3], the “water solubility compared with paclitaxel” value is “more water soluble than paclitaxel”.

Regarding `COc1cc(CNC(=O)CCCC/C=C/C(C)C)ccc1O` [capsaicin], the anti-proliferative effect entry in data set [4] and in data set [5] was “profound anti-proliferative effect” each time. The PSA expression result in data set [6] is on record as “down-regulates PSA expression”.

Consider `O=C1c2c(O)ccc(O)c2C(=O)c2c(NCCNCCO)ccc(NCCNCCO)c21` [mitoxantrone], for which the overall response rate in data set [1] was 7%.
